{"source": "paper PMC7490411", "about": "(Signal Transduction and Targeted Therapy, 2020)", "key": {"CAMK2G": {"system": "CAMK2G", "experiment": "KINOMEscan", "assay_type": "binding", "details": "1000 nM"}, "NIK": {"system": "NIK", "experiment": "KINOMEscan", "assay_type": "binding", "details": "1000 nM"}, "AKT3": {"system": "AKT3", "experiment": "KINOMEscan", "assay_type": "binding", "details": "1000 nM"}, "TYRO3": {"system": "TYRO3", "experiment": "KINOMEscan", "assay_type": "binding", "details": "1000 nM"}, "MST1R": {"system": "MST1R", "experiment": "KINOMEscan", "assay_type": "binding", "details": "1000 nM"}, "PIK3CA(H1047L)": {"system": "PIK3CA(H1047L)", "experiment": "KINOMEscan", "assay_type": "binding", "details": "1000 nM"}, "MEK4": {"system": "MEK4", "experiment": "KINOMEscan", "assay_type": "binding", "details": "1000 nM"}, "JNK1": {"system": "JNK1", "experiment": "KINOMEscan", "assay_type": "binding", "details": "1000 nM"}, "CAMK1G": {"system": "CAMK1G", "experiment": "KINOMEscan", "assay_type": "binding", "details": "1000 nM"}, "PLK2": {"system": "PLK2", "experiment": "KINOMEscan", "assay_type": "binding", "details": "1000 nM"}, "[1]": {"system": "JAK1(JH2domain-pseudokinase)", "experiment": "KINOMEscan", "assay_type": "binding", "details": "1000 nM"}, "[2]": {"system": "TMD8 cell (DLBCL)-inoculated xenograft", "experiment": "TMD8 cell subcutaneous xenograft tumor model", "assay_type": "in vivo"}, "DDR1": {"system": "DDR1", "experiment": "KINOMEscan", "assay_type": "binding", "details": "1000 nM"}, "CSNK1G1": {"system": "CSNK1G1", "experiment": "KINOMEscan", "assay_type": "binding", "details": "1000 nM"}, "BRAF": {"system": "BRAF", "experiment": "KINOMEscan", "assay_type": "binding", "details": "1000 nM"}, "EPHA5": {"system": "EPHA5", "experiment": "KINOMEscan", "assay_type": "binding", "details": "1000 nM"}, "ERBB4": {"system": "ERBB4", "experiment": "KINOMEscan", "assay_type": "binding", "details": "1000 nM"}, "SK-OV-3 cells": {"system": "SK-OV-3 cells", "experiment": "NK-cell-mediated ADCC, LDH release cytotoxicity assay, Herceptin", "assay_type": "cell-based, human", "description": "The cytotoxicity of NK cells was measured using the CyQUANT™ LDH Cytotoxicity Assay Kit (Invitrogen™, #C20300) according to the manufacturer’s instructions. Briefly, enriched NK cells (6 × 10^5 /ml) were cultured with the same volume of Mino cell and SK-OV-3 cell (1-2 × 10^4 /ml) in a 96-well plate for 4 h with Rituximab and Herceptin (10 μg/mL) and CHMFL-BTK-85 or PCI32765 at 37°C in a humidified CO2 incubator prior to removal of the supernatant for lactate dehydrogenase (LDH) release measurements. Calculate % Cytotoxicity by using the following formula: %Cytotoxicity = (Compound-treated LDH activity-Spontaneous LDH activity)/(Maximum LDH activity-Spontaneous LDH activity)*100."}, "PLK3": {"system": "PLK3", "experiment": "KINOMEscan", "assay_type": "binding", "details": "1000 nM"}, "CSNK1G2": {"system": "CSNK1G2", "experiment": "KINOMEscan", "assay_type": "binding", "details": "1000 nM"}, "EPHB3": {"system": "EPHB3", "experiment": "KINOMEscan", "assay_type": "binding", "details": "1000 nM"}, "FLT3(ITD,D835V)": {"system": "FLT3(ITD,D835V)", "experiment": "KINOMEscan", "assay_type": "binding", "details": "1000 nM"}, "PAK4": {"system": "PAK4", "experiment": "KINOMEscan", "assay_type": "binding", "details": "1000 nM"}, "FAK": {"system": "FAK", "experiment": "KINOMEscan", "assay_type": "binding", "details": "1000 nM"}, "[3]": {"system": "RSK2(Kin.Dom.1-N-terminal)", "experiment": "KINOMEscan", "assay_type": "binding", "details": "1000 nM"}, "PRKG1": {"system": "PRKG1", "experiment": "KINOMEscan", "assay_type": "binding", "details": "1000 nM"}}, "data": [{"molecule": "C=CC(=O)Nc1cc(Nc2cc(-c3cccc(NC(=O)c4cc5c(s4)CCCC5)c3C)cn(C)c2=O)ccc1N1CCN(CC)CC1", "note": "[CHMFL-BTK-85]", "values": [{"measurement": "Percent Control", "setting": "CAMK2G", "value": 100, "unit": "%"}, {"measurement": "Percent Control", "setting": "NIK", "value": 100, "unit": "%"}, {"measurement": "Percent Control", "setting": "AKT3", "value": 97, "unit": "%"}, {"measurement": "Percent Control", "setting": "TYRO3", "value": 97, "unit": "%"}, {"measurement": "Percent Control", "setting": "MST1R", "value": 98, "unit": "%"}, {"measurement": "Percent Control", "setting": "PIK3CA(H1047L)", "value": 100, "unit": "%"}, {"measurement": "Percent Control", "setting": "MEK4", "value": 100, "unit": "%"}, {"measurement": "Percent Control", "setting": "JNK1", "value": 100, "unit": "%"}, {"measurement": "Percent Control", "setting": "CAMK1G", "value": 94, "unit": "%"}, {"measurement": "Percent Control", "setting": "PLK2", "value": 100, "unit": "%"}, {"measurement": "Percent Control", "setting": "[1]", "value": 96, "unit": "%"}, {"measurement": "TGI", "setting": "[2]; TMD8 xenograft, 100 mg/kg/day, 28 days", "value": 96, "unit": "%"}, {"measurement": "toxicity signs in TMD8 xenograft model", "setting": "[2]; mouse, body weight monitoring", "value": "no weight loss or any other obvious signs of toxicity"}, {"measurement": "Percent Control", "setting": "DDR1", "value": 100, "unit": "%"}, {"measurement": "Percent Control", "setting": "CSNK1G1", "value": 95, "unit": "%"}, {"measurement": "Percent Control", "setting": "BRAF", "value": 100, "unit": "%"}, {"measurement": "Percent Control", "setting": "EPHA5", "value": 100, "unit": "%"}, {"measurement": "Percent Control", "setting": "ERBB4", "value": 91, "unit": "%"}, {"measurement": "effect on antibody-dependent NK-cell-mediated cytotoxicity (ADCC)", "setting": "SK-OV-3 cells", "value": "did not affect"}, {"measurement": "Percent Control", "setting": "PLK3", "value": 99, "unit": "%"}, {"measurement": "Percent Control", "setting": "CSNK1G2", "value": 98, "unit": "%"}, {"measurement": "Percent Control", "setting": "EPHB3", "value": 100, "unit": "%"}, {"measurement": "Percent Control", "setting": "FLT3(ITD,D835V)", "value": 100, "unit": "%"}, {"measurement": "Percent Control", "setting": "PAK4", "value": 100, "unit": "%"}, {"measurement": "Percent Control", "setting": "FAK", "value": 99, "unit": "%"}, {"measurement": "Percent Control", "setting": "[3]", "value": 100, "unit": "%"}, {"measurement": "Percent Control", "setting": "PRKG1", "value": 93, "unit": "%"}]}]}
